Experiments:
Type in all cases: cell-based, human
[1] = test system: ALDH+ subpopulations of SK-BR-3, MDA-MB-231, and SUM159; assay: Tumorsphere formation, ALDH+ subpopulations; settings: 2.5–10 µmol/L, 10 to 15 days
Protocol: ALDH^+ and ALDH^+/CD44^+/CD24^− cells were plated as single cells in ultra-low attachment six-well plates at a density of 250, 500, 1000 or 50,000 viable cells/well as previously described. On the second day after seeding, the ALDH^+ cancer cells were treated with 2.5–10 µmol/L of LLL12 or Stattic. For tumorsphere forming capacity assay, ALDH^+ or ALDH^− cells were plated as single cells in ultra-low attachment six-well plates at a density of 250, 500 or 1000 viable cells/well. Tumorsphere growth was observed under a microscope 10 to 15 days later.

[2] = test system: STAT3 phosphorylation (Y705); assay: Western blot of STAT3 phosphorylation in ALDH+ cells; settings: LLL12 5 µmol/L or Stattic 10 µmol/L 24 hours, ShRNA 48 hours then puromycin
Protocol: (§1) The ALDEFLUOR kit (StemCell Technologies) was used to isolate the population with high ALDH enzymatic activity as previously described. Briefly, cells were trypsinized to single cells using 0.05% trypsin and subsequently suspended in ALDEFLUOR assay buffer containing ALDH substrate (BAAA, 1 µmol/l per 1×10^6 cells) and then incubated for 40 minutes at 37°C. For each sample, an aliquot of cells was stained under identical conditions with 15 mmol/L diethylaminobenzaldehyde (DEAB), a specific ALDH inhibitor, as an ALDH^− control. Anti-human PE-CD24 and PE-Cy5-CD44 antibody (BioLegend) were used for CD44/CD24 identification and to separate ALDH^+/CD44^+/CD24^− and ALDH^−/CD44^+/CD24^+ cells when combined with ALDH staining. Analysis was performed using a FACStarPLUS (Becton Dickinion) flow cytometer. To assess the effect of STAT3 inhibitors on the subpopulation of ALDH^+ cells, un-separated breast cancer cells were treated with 5 µmol/L of LLL12 or 10 µmol/L Stattic for 24 hours prior to performing the ALDEFLUOR assay.
After sorting by flow cytometry, ALDH^+ and ALDH^+/CD44^+/CD24^− stem-like cells were cultured in serum-free stem cell medium in ultra-low attachment six-well plates (Corning) to maintain cancer stem cell characteristics. […]

[3] = test system: ALDH+ subpopulation in MDA-MB-231, SUM159, and SK-BR3 cancer cells; assay: ALDEFLUOR assay, percentage of ALDH+ subpopulation; settings: un-separated MDA-MB-231, SUM159, SK-BR3; LLL12 5 µmol/L or Stattic 10 µM, 24 hours
Protocol: as §1

ALDH− cells = assay: MTT cell viability assay, ALDH− subpopulation; settings: Figure S4
Protocol: (§2) The breast cancer cells were seeded in 96-well plates (3,000 cells/well) in triplicates in a serum-free mammary epithelial basal medium. The following day, cancer cells were treated with 1 to 10 µmol/L of LLL12 or Stattic for 72 hours, STAT3 ShRNA or control GFP shRNA lentivirus (CTL ShRNA) for 48 hours. MTT (Thiazolyl Blue Tetrazolium Bromide, Sigma-Aldrich) assay was used to determine the cell viability.

ERK1/2 phosphorylation = ERK1/2 phosphorylation in ALDH+ cells; settings: ALDH+ breast cancer stem-like cells; 10 µmol/L, 24 hours
Protocol: After sorting by flow cytometry, ALDH^+ and ALDH^+/CD44^+/CD24^− stem-like cells were cultured in serum-free stem cell medium in ultra-low attachment six-well plates (Corning) to maintain cancer stem cell characteristics. ALDH^−, ALDH^−/CD44^+/CD24^+cells and un-separated cells were cultured in regular medium and replaced with identical stem cell medium for three days before being harvested. To assess the effects of STAT3 inhibitors, ALDH^+ and ALDH^+/CD44^+/CD24^− subpopulations of breast cancer cells were treated with LLL12 (5 µmol/L) of or static (10 µmol/L) for 24 hours. STAT3, or control GFP shRNA lentivirus (CTL ShRNA) was introduced into ALDH^+ breast cancer stem-like cells for 48 hours, then followed by selection with puromycin (0.2 µg/ml) for 72 hours. Antibodies (Cell Signaling Tech.) against phospho-specific STAT3 (Tyrosine 705) (P-STAT3, Y705), ERK1/2 (Threonine 202/Tyrosine 204), cleaved Poly (ADP-ribose) polymerase (PARP), ALDH1, cleaved caspase-3, and GAPDH were used for western blots.

[4] = test system: ALDH+ subpopulation from MDA-MB-231, SUM159, and SK-BR3 cells; assay: MTT cell viability assay, ALDH+ subpopulation; settings: 1 to 10 µmol/L 72 hours, ShRNA 48 hours
Protocol: as §2

Structure (SMILES): O=[N+]([O-])c1ccc2c(c1)S(=O)(=O)C=C2 [Stattic, reference compound]
- tumorsphere formation [1]: suppress
- STAT3 phosphorylation in ALDH+ cells [2]: reduced
- ALDH+ subpopulation (percentage) [3]: decreased
- effects against the ALDH− cells (cell viability) (ALDH− cells): some inhibitory effects
- ERK1/2 phosphorylation (ERK1/2 phosphorylation): not
- cell viability of the ALDH+ subpopulation [4]: inhibit

— PMC3871589, “Evaluation of STAT3 Signaling in ALDH+ and ALDH+/CD44+/CD24− Subpopulations of Breast Cancer Cells” (PLoS ONE, 2013)
